The source of these data is ChEMBL document CHEMBL1201862, “PubChem BioAssay data set” (2004).

Molecules are shown by their SMILES.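 Cultured in 96-well plates, cells were exposed to test compound for 48 hours across five concentrations. At the GI50, growth is halved.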 Calls of active or inactive are those of the source. No stated cut-off is given here; in the data, active = GI50 up to about 1.1 µM and inactive = higher. Where a SMILES comes first, the peptide text is derived from it. The star is where a group is joined. Boc = CC(C)(C)OC(=O)*

What all share (test): DTP human tumour cell line panel, 48 h
Assay [1] deals with SF-295.
In assay [2] the test system is CAKI-1.
Assay [3] deals with HCC 2998.
For assay [4], the system named is MOLT-4.
Assay [5] relates to 786-0.
Assay [6] relates to UACC-62.
For assay [7], the system named is SF-268.
For assay [8], the system named is MDA-MB-435.
The test system of assay [9] is U-251.
For assay [10], the system named is KM12.
Assay [11] deals with UO-31.
Assay [12] relates to SR.
The subject of assay [13] is A498.
Assay [14] concerns OVCAR-5.
Assay [15] deals with NCI-H226.
Assay [16] deals with NCI-H522.
For assay [17], the system named is CCRF-CEM.
Assay [18] deals with Malme-3M.

For orientation: GI50 means the concentration that inhibits growth by half. Regarding `O=C(Nc1ccccc1)c1cc(S(=O)(=O)n2ccnc2O)c(S)cc1Cl`, the GI50 in assay [1], in assay [2], in [3], in [4], in [5] and in assay [6] was > 100 µM (inactive) in each case. Also, the GI50 in [7], in assay [8], in [9], in assay [10], in [11] and in assay [12] was > 100 µM (inactive) each time. Besides, the GI50 in assay [13], in assay [14], in assay [15], in assay [16] and in assay [17] was > 100 µM (inactive) each time.

Consider `COC1=CC(=O)c2c(c(COP(=O)(N(C)CCBr)N(C)CCBr)cn2C)C1=O`, for which the GI50 in assay [1] is < 0.01 µM (active); in assay [2], < 0.01 µM (active); in [3], 0.0373 µM (active); in assay [4], < 0.01 µM (active); in [5] it was < 0.0103 µM (active); in assay [6], < 0.0333 µM (active). Further, the GI50 in assay [7] is 0.0431 µM (active); in [8], 0.0588 µM (active); in assay [9], < 0.0225 µM (active); in assay [10], 0.219 µM (active); in [11], < 0.0261 µM (active); in [12] it was < 0.01 µM (active). Besides, the concentration for 50% growth inhibition (GI50) was 0.279 µM (active) in assay [13]; 0.148 µM (active) in assay [14]; 0.0811 µM (active) in assay [18]; 0.138 µM (active) in assay [16]; < 0.0158 µM (active) in assay [17].

As to `CCOC(=O)c1[nH]cc(C)c1-c1ccn(-c2ccccc2)c1`, the GI50 in assay [1] is 56.4 µM (inactive); in [2], > 100 µM (inactive); in assay [3] it was 41.9 µM (inactive); in assay [4], 18.3 µM (inactive); in assay [5], 53.2 µM (inactive); in assay [6], 36.8 µM (inactive). The GI50 in assay [7] is 44.7 µM (inactive); in assay [8] it was 41.9 µM (inactive); in [9], 49.4 µM (inactive); in [10], 19.6 µM (inactive); in assay [11], 25.8 µM (inactive); in assay [12] it was 15.6 µM (inactive). Further, the GI50 was > 100 µM (inactive) in assay [13]; > 100 µM (inactive) in assay [14]; 51.5 µM (inactive) in [15]; 20.1 µM (inactive) in assay [16]; 19.2 µM (inactive) in assay [17].

Regarding `C[C@@H]1C[C@@H](O)[C@@]2(O)C13CC(=O)OC(C3)[C@@H](C)[C@@]2(C)CO` (stereo not given in full), the GI50 in [1], in assay [3], in [4], in assay [5], in assay [6] and in assay [7] was > 100 µM (inactive) in each case. For the same compound, the GI50 in [8], in assay [9], in [10], in assay [11], in assay [12] and in assay [13] was > 100 µM (inactive) each time. Moreover, the GI50 in assay [14], in assay [18], in assay [15] and in [16] was > 100 µM (inactive) in each case.

As for `COc1ccc(/C=C2\CCS(=O)(=O)c3ccccc3C2=O)cc1`, the GI50 in [1] was 35 µM (inactive); in assay [2], 26.5 µM (inactive); in assay [3] it was 20 µM (inactive); in [4], 18.1 µM (inactive); in assay [5], 18.3 µM (inactive); in assay [6] it was 20 µM (inactive). Further, the GI50 in [7] is 30.3 µM (inactive); in assay [8], 26.9 µM (inactive); in assay [9] it was 17.8 µM (inactive); in [10], 16.6 µM (inactive); in assay [11] it was 19.7 µM (inactive); in assay [12], 8.55 µM (inactive). Besides, the GI50 in [13] is 20.9 µM (inactive); in [14], 26.7 µM (inactive); in [15] it was 20.2 µM (inactive); in assay [17], 20 µM (inactive).

`CCOC(=O)C(CC(C)C)NC(=O)C(Cc1ccccc1)NC(=O)CNC(=O)OC(C)(C)C` (stereo not drawn) (Boc-Gly-Phe-Leu-OEt; configuration not given here): the GI50 in assay [1] is 34.8 µM (inactive); in assay [2], 0.145 µM (active); in [3] it was 19.7 µM (inactive); in assay [4], 11.1 µM (inactive); in assay [5] it was 20.9 µM (inactive); in [6], 18.4 µM (inactive). Further, the GI50 is 21 µM (inactive) in [7]; 18.2 µM (inactive) in assay [8]; 17.7 µM (inactive) in assay [9]; 18.5 µM (inactive) in assay [10]; 45.8 µM (inactive) in assay [11]; 15.8 µM (inactive) in [12]. Further, the GI50 was 22.1 µM (inactive) in assay [13]; 19.9 µM (inactive) in assay [18]; 17.3 µM (inactive) in assay [15]; 19.1 µM (inactive) in assay [16]; 16.6 µM (inactive) in assay [17].

`CCOC(=O)NC(Nc1ccc(S(=O)(=O)Nc2ccc(OC)nn2)cc1)(C(F)(F)F)C(F)(F)F`: the GI50 in [1] is 37 µM (inactive); in assay [2] it was > 100 µM (inactive); in [3], > 100 µM (inactive); in [4] it was 15.8 µM (inactive); in assay [5], 20.9 µM (inactive); in [6], 45 µM (inactive). Further, the GI50 is 36.1 µM (inactive) in assay [7]; 14.5 µM (inactive) in [8]; 17.9 µM (inactive) in assay [9]; 30.8 µM (inactive) in assay [10]; > 100 µM (inactive) in [11]; 24.7 µM (inactive) in assay [12]. The GI50 in assay [13] is 26.3 µM (inactive); in assay [14] it was 32.2 µM (inactive); in [18], 20.2 µM (inactive); in [15], 23 µM (inactive); in assay [17] it was 26.5 µM (inactive).

With `CO[C@]12CC(=O)C3(C(C[C@H]4CC5CC=C6C[C@@H](OC(C)=O)CC[C@]6(OC(C)=O)C5C[C@@]43C)C1)C1C[C@H]3[C@@H]4CC=C5C[C@@H](OC(C)=O)CC[C@]5(OC(C)=O)[C@H]4CC[C@]3(C)C12` (stereo not given in full), the GI50 is 13.9 µM (inactive) in [1]; 19.2 µM (inactive) in [2]; 17.8 µM (inactive) in assay [3]; 5.58 µM (inactive) in assay [4]; 19.8 µM (inactive) in assay [5]; 20.4 µM (inactive) in [6]. Further, the GI50 in [7] was 56.9 µM (inactive); in assay [8], 18.8 µM (inactive); in assay [9], 17.5 µM (inactive); in [10] it was 11.4 µM (inactive); in assay [11], 16.1 µM (inactive); in [12] it was 5.66 µM (inactive). In addition, the GI50 was 27.2 µM (inactive) in [13]; 21.7 µM (inactive) in assay [14]; 18.5 µM (inactive) in assay [18]; 14 µM (inactive) in assay [16]; 74 µM (inactive) in assay [17].

As for `CCN(CC)c1ccc2cc(C(=O)Nc3ccccc3OC)c(=N)oc2c1`, the GI50 was 33.9 µM (inactive) in assay [1]; 23.7 µM (inactive) in assay [2]; 21.8 µM (inactive) in assay [3]; 3.24 µM (inactive) in [4]; 14.7 µM (inactive) in [5]; 25.2 µM (inactive) in [6]. The GI50 in assay [7] was 8.15 µM (inactive); in assay [8] it was 34.2 µM (inactive); in assay [9], 10.1 µM (inactive); in assay [10], 33.1 µM (inactive); in [11], 0.321 µM (active); in [12], 5.16 µM (inactive). Also, the GI50 in assay [13] is 31.3 µM (inactive); in assay [14], 44.3 µM (inactive); in [18], 32.3 µM (inactive); in assay [16], 10.4 µM (inactive); in assay [17], 2.89 µM (inactive).

In the case of `CCN1C(NN)=NS(=O)(=O)c2ccccc21`, the GI50 in assay [1], in assay [2], in assay [3], in [4], in [5] and in [6] was > 100 µM (inactive) in each case. In addition, the GI50 in [7], in assay [8], in [9], in assay [10], in assay [11] and in assay [12] was > 100 µM (inactive) throughout. Also, the GI50 in assay [13], in assay [14], in assay [15], in assay [16] and in [17] was > 100 µM (inactive) throughout.

In the case of `CC1=C(C(=O)OC2CC3CCC2(C)C3(C)C)C2Nc3ccccc3N(C)C2O1` (stereo not given), the GI50 was 1.72 µM (inactive) in assay [1]; 2.95 µM (inactive) in assay [2]; 1.66 µM (inactive) in [3]; 1.84 µM (inactive) in [4]; 2.51 µM (inactive) in [5]; 1.98 µM (inactive) in [6]. For the same compound, the GI50 was 4.8 µM (inactive) in [7]; 1.54 µM (inactive) in assay [8]; 3.58 µM (inactive) in assay [9]; 2.43 µM (inactive) in assay [10]; 2.5 µM (inactive) in [11]; 1.19 µM (inactive) in [12]. Also, the GI50 is 6.12 µM (inactive) in assay [13]; 7.1 µM (inactive) in [14]; 4.3 µM (inactive) in [15]; 1.93 µM (inactive) in [16]; 2.04 µM (inactive) in [17].
